# Experimental data: PubChem BioAssay (NCI)
#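 Each compound was tested at five concentrations against cells in 96-well plates for 48 hours. Abbreviation: GI50, concentration required for 50% inhibition of growth. Definition used: TGI = concentration required for complete inhibition of growth.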
# Tested on: MDA-MB-468 breast
# Assay: inhibition of tumour cell growth, NCI panel, 48 h
Structure (SMILES),GI50,TGI
CN1CCN(c2ccc(NC3=C(Cl)C(=O)c4ncccc4C3=O)cc2C#N)CC1,414 nM,1900 nM
O=C(Nc1ccccc1O)c1ccc(CNC(=O)c2sccc2Nc2ccnc(C(F)(F)F)c2)cc1,2010 nM,5900 nM
COc1cc(NCc2ccccc2O)c2ncccc2c1,15400 nM,50400 nM
CCN(CC)CCOc1ccc2c(c1)C(=O)c1cc(OCCN(CC)CC)ccc1-2,2640 nM,8530 nM
CC(C)(C)OC(=O)CN1CCc2c(sc3ncnc(N/N=C/c4cccc5ccccc45)c23)C1,3900 nM,16300 nM
C1=C(c2ccccc2)C(c2ccc(OCCN3CCCCC3)cc2)Oc2ccccc21 (configuration not stated),1540 nM,3000 nM
CCO/C=N/C1=C(C#N)C(c2ccc(F)cc2)c2sc3c(C)cccc3c2O1 (configuration not stated),504 nM,17100 nM
CCCCCCCCCCCCCC(=O)C(C)N (configuration not stated),3310 nM,9510 nM
NC(=S)N/N=C\c1nccc2c(N)cccc12,226 nM,717 nM
Cc1ccc2c(c1)O/C(=C\c1ccc([N+](=O)[O-])o1)C2=O,1560 nM,3500 nM
Cc1cc2c(-c3ccc(NC(=O)[C@H](N)CC(C)(C)C)cc3C)ccnc2[nH]1,2730 nM,10600 nM
O=C(CNc1ncco1)Nc1ccc(S(=O)(=O)c2ccc(NC(=O)CNc3ncco3)cc2)cc1,1440 nM,3160 nM
Cc1cc(C)n(C(=O)c2nn(-c3ccc(Cl)cc3)cc2O)n1,8900 nM,> 100000 nM
Cc1cccc2c1O/C(=C\c1ccc([N+](=O)[O-])o1)C2=O,1290 nM,2990 nM
COc1cc(C2=NN(c3ccc(S(N)(=O)=O)cc3)C(c3ccc(Cl)cc3)C2)cc(OC)c1OC (configuration not stated),2880 nM,> 100000 nM
O=C(O)c1cc(Cc2ccc(O)c(C(=O)O)c2)ccc1O (tested in a mixture with another compound),2570 nM,14400 nM
C[C@@H](Oc1ccc2[nH]nc(/C=C/c3cnn(CCO)c3)c2c1)c1c(Cl)cncc1Cl,1370 nM,3110 nM
C#Cc1cccc(Oc2ccc(NC(=O)CCl)cc2)c1,77900 nM,> 82500 nM
[C-]#[N+][C@]12C(=O)[C@H](CCC1(C)C)C(C)(C)[C@H]1C(=O)N(C)c3cccc2c31,4020 nM,> 100000 nM
CCCCCCNc1nc(N2CCOCC2)c2[nH]c(NCCCCCC)nc2n1,1380 nM,2700 nM

Structure (SMILES),GI50,TGI
CNC(=O)OC1C(O[C@H]2C[C@H]3[C@@H]4CC=C5C[C@@H](O)CC[C@]5(C)[C@H]4CC[C@]3(C)[C@H]2[C@H](C)C(=O)CCC(C)C)OCC(O)C1OC1OCC(O)C(O)C1OC(=O)c1ccc(OC)cc1 (some centres not stated),27 nM,2960 nM
COc1ccc(-c2nnc(N3CCN(C(=O)CN4CCN(c5ccc(Cl)cc5)CC4)CC3)nc2-c2ccc(OC)cc2)cc1,17900 nM,48300 nM
COc1ccc(CC(NC(=O)[C@H](C)NC(=O)CN2CCOCC2)C(=O)N[C@@H](Cc2ccccc2)C(=O)[C@@]2(C)CO2)cc1 (some centres not stated),174 nM,595 nM
COc1cc(-c2cc(/C=C3\C(=O)Nc4ccccc43)[nH]n2)cc(OC)c1OC,2880 nM,13400 nM
Nc1ccc2ccc(NS(=O)(=O)N3CCCCC3)cc2c1,194 nM,> 100000 nM
Cc1nc2cc(Nc3nc(Nc4ccc(F)cc4)nc(N4CCN(C)CC4)n3)ccc2n1Cc1ccccc1,1430 nM,3440 nM
C(=C\c1nccc2c1[nH]c1ccccc12)/c1ccccc1,2040 nM,7910 nM
Cc1cc(C)cc(Nc2ccc([N+](=O)[O-])c(NCCN3CCOCC3)n2)c1,0.419 nM,–
COc1ccc2c(c1)cn1c3ccc(O)cc3[nH]c(=O)c21,236 nM,1090 nM
C/C1=C/C(=O)O[C@@H]2C[C@@H](CC[C@H](C)/C=C\C=C\CC1)O[C@@](OCCc1ccccc1)([C@@H]1CSC(=O)N1)C2,29.2 nM,135 nM
Cc1ccc(C2CC(c3ccc(Nc4nc(NCCO)nc(Nc5ccc(Cl)cc5)n4)cc3)=Nc3c(N)nc(N)nc3N2)cc1 (configuration not stated),1650 nM,3170 nM
O=C1C(=O)c2ccccc2C(O)=C1CC=C(Cl)Cl,15800 nM,59000 nM
CCOC(=O)N[C@H]1CCc2c(Br)c(OC)c(OC)c(OC)c2-c2ccc(SC)c(=O)cc21,< 10 nM,16800 nM
CC(CN1CCN(CC(C)Nc2ccnc3cc(Cl)ccc23)CC1)Nc1ccnc2cc(Cl)ccc12 (configuration not stated),2970 nM,9550 nM
O=S(=O)(NCCNc1cc(-c2cn(-c3ccccc3)nc2-c2cccc(O)c2)ccn1)c1ccc(Cl)cc1,2780 nM,7660 nM
Oc1c(I)cc(-c2nc3ccccc3s2)cc1CN(Cc1ccccn1)Cc1ccccn1,531 nM,5250 nM
COc1ccc(/C=C/C(=O)c2cc3c(N)c(C(=O)Nc4ccccc4C)sc3nc2C)cc1,167 nM,> 50000 nM
CN(C)CCCOc1c2ccccc2nc2c1oc1ccc(Cl)cc12,2950 nM,8800 nM
CS(=O)(=O)CCn1c(=O)c(Oc2ccc(F)cc2F)cc2cnc(NC3CCOCC3)nc21,> 25000 nM,> 25000 nM
